Data: patent US8822523B2, “Carboxamide microbiocides” (Syngenta Participations AG, priority 2011, dated 2014)

Assays:
[1] = tested on: Mycosphaerella graminicola (Septoria tritici); test: Mycosphaerella graminicola (Septoria tritici) / liquid culture (Septoria blotch); assay type: cell-based; conditions: Zymoseptoria tritici, 96 h; 200 ppm active ingredient, PDB potato dextrose broth, 24° C., photometrically after 4 days; read-out: fungal growth inhibition
Experimental: Mycosphaerella graminicola (Septoria tritici)/Liquid Culture (Septoria blotch)
(§1) Conidia of the fungus from cryogenic storage were directly mixed into nutrient broth (PDB potato dextrose broth). After placing a (DMSO) solution of the test compounds (200 ppm active ingredient) into a microtiter plate (96-well format) the nutrient broth containing the fungal spores was added. The test plates were incubated at 24° C. and the inhibition of growth was measured photometrically after 4 days. The activity of a compound was expressed as fungal growth inhibition (0=no growth inhibition, ratings of 80% to 99% mean good to very good inhibition, 100%=complete inhibition).

[2] = tested on: Mycosphaerella arachidis (Cercospora arachidicola); test: Mycosphaerella arachidis (Cercospora arachidicola) / liquid culture (early leaf spot); assay type: cell-based; conditions: 200 ppm active ingredient, PDB potato dextrose broth, 24° C., photometrically after 6-7 days, read-out: fungal growth inhibition
Experimental: Mycosphaerella arachidis (Cercospora arachidicola)/Liquid Culture (Early Leaf Spot)
as §1, with “after 6-7” for “after 4”

[3] = tested on: Puccinia recondita; test: Puccinia recondita / wheat / leaf disc preventative (brown rust); assay type: in vivo; conditions: foliar, 200 ppm active ingredient, wheat leaf segments, preventive, assessed 8 dpi, read-out: fungal growth inhibition
Experimental: Puccinia recondita/Wheat/Leaf Disc Preventative (Brown Rust)
Wheat leaf segments were placed on agar in multiwell plates (24-well format) and sprayed with test solutions (200 ppm active ingredient). After drying, the leaf disks were inoculated with a spore suspension of the fungus. After appropriate incubation the activity of a compound was assessed 8 dpi (days after inoculation) as preventive fungicidal activity. The activity of a compound was expressed as fungal growth inhibition (0=no growth inhibition, ratings of 80% to 99% mean good to very good inhibition, 100%=complete inhibition).

[4] = tested on: Puccinia recondita; test: Puccinia recondita / wheat / leaf disc curative (brown rust); assay type: in vivo; conditions: foliar, 24 h, 200 ppm active ingredient applied one day after inoculation, wheat leaf segments, assessed 8 dpi, read-out: fungal growth inhibition
Experimental: Puccinia recondita/Wheat/Leaf Disc Curative (Brown Rust)
Wheat leaf segments were placed on agar in multiwell plates (24-well format). The leaf disks were then inoculated with a spore suspension of the fungus One day after inoculation the test solution was applied (200 ppm active ingredient). After appropriate incubation the activity of a compound was assessed 8 dpi (days after inoculation) as curative fungicidal activity. The activity of a compound was expressed as fungal growth inhibition (0=no growth inhibition, ratings of 80% to 99% mean good to very good inhibition, 100%=complete inhibition).

Measured: inhibition at 200 ppm

Cn1cc(C(=O)NOCC2CCCCc3cc(C#CC(C)(C)C)sc32)c(C(F)F)n1 (stereo not shown) [Compound 2.47, 3-Difluoromethyl-1-methyl-1H-pyrazole-4-carboxylic acid [2-(3,3-dimethylbut-1-ynyl)-5,6,7,8-tetrahydro-4H-cyclohepta[b]thiophen-8-yl]methoxy amide]
≥ 80%: all assays above
